The values below come from paper PMC7195606 (Pharmacology, biochemistry, and behavior, 2020).

Structures are written as SMILES. Bounds are passed on as bounds.

In data set [1] the test system is C57Bl/6J mice. Nature of the data set: Rectal. The format is in vivo. The note with it: for maximal decrease in temperature, females / maximal decrease in temperature, males / effect on body temperature, females / effect on body temperature, males / effect on body temperature: single IP injection; for effect on body temperature, females / effect on body temperature, males / effect on body temperature: ambient 22-23 °C; for effect on body temperature: males and females.

The conditions of data set [2]: lower doses (<10 mg/kg IP); ref not given; cited from earlier work.
Data set [3] deals with C57Bl/6J mice. Kind of data set: Lethality. In kind it is in vivo. To be noted: 2 hr observation; for lethal effects: 20-160 mg/kg IP (MDPV up to 140 mg/kg).
Data set [4] concerns C57Bl/6J mice. Nature of the data set: Organ weights normalized to body weight. In kind it is in vivo. The note with it: 20-160 mg/kg IP, normalized according to body weight.
Data set [5] deals with C57Bl/6J mice. Nature of the data set: Histological analysis of organs by hematoxylin-eosin staining. The note with it: at lethal doses. The format is in vivo.
For data set [6] the following is noted: ref Miner et al., 2017, cited from earlier work; for decrease in temperature after the first injection: first injection of a binge regimen.
The conditions of data set [7]: ref Piao et al., 2015; cited from earlier work.

With `C[C@H](N)C(=O)c1ccccc1` [CAT, cathinone], the “time post injection with significant hypothermia vs baseline” value in data set [1] (females, 40 mg/kg IP) is “lasted the entire duration of the experiment”; in data set [1] (males, 20 mg/kg IP), 20 min; in data set [1] (males, 40 mg/kg IP) it was 20 min; in data set [1] (males, 80 mg/kg IP), 20 min. Moreover, the “maximal decrease in temperature, females” value in data set [1] (females) is “≈ 7 °C”. The “maximal decrease in temperature, males” value in data set [1] (males) was “≈ 5 °C”. For the same compound, the hyperthermia result in data set [2] was “≈ 1 °C”. Also, the lethal effects entry in data set [3] is listed as “no lethal effects at any dose”.

For the compound `CN[C@@H](C)Cc1ccccc1` [MA, methamphetamine], in data set [1] (females), the “effect on body temperature, females” value was “no significant differences in temperature post-injection”. For the same compound, in data set [1] (males, 40 mg/kg IP), the “timepoint of return of temperature to baseline” value was no more than 100 min. Moreover, the “effect on body temperature, males” value in data set [1] (males) is recorded as “increased body temperature”. Moreover, in data set [4], the normalized heart weight entry is “increased normalized heart weight in a dose dependent manner” and the normalized liver weight entry was “significantly increased normalized liver weight”. Further, in data set [5], the “liver histology (hematoxylin-eosin)” value was “minor changes in cell morphology in the liver”.

In the case of `CNC(C)C(=O)c1ccccc1` (stereo not shown) [MCAT, methcathinone], the “time of peak hypothermic effect after injection” value in data set [1] (both males and females) turned out to be 60 min. In addition, the “maximal decrease in temperature, females” value in data set [1] (females) was “≈ 7 °C”. In addition, in data set [1], the “effect on body temperature” value is reported as “pronounced hypothermic effects”. Also, the “time post injection with significant hypothermia vs baseline” value in data set [1] (males, 20 mg/kg IP) was 20 min; in data set [1] (males, 80 mg/kg IP) it was “failed to show significance”; in data set [1] (males, 120 mg/kg IP), “did not identify an significant effects”; in data set [1] (males, 160 mg/kg IP), 60 min. The “maximal decrease in temperature, males” value in data set [1] (males) is “≈ 3 °C”. Besides, in data set [2], the hyperthermia entry was “≈ 1 °C”. Besides, the lethal effects entry in data set [3] was “this occurred at the highest dose and only in one subject”.

As to `CNC(C)Cc1ccc2c(c1)OCO2` (stereo not shown) [MDMA, 3,4-methylenedioxymethamphetamine], the “effect on body temperature, females” value in data set [1] (females) was “hypothermic effects”. The “effect on body temperature, males” value in data set [1] (males) is on record as “not significant at any dose”. For the same compound, the “decrease in temperature after the first injection” value in data set [6] was 3 °C. This compound yielded an LD50 as base in data set [3] (single IP injection, males and females pooled) of 100.92 mg/kg. In data set [4], the normalized heart weight result is reported as “increased normalized heart weight in a dose dependent manner” and the normalized liver weight entry is reported as “did not significantly affect liver weight”. For the same compound, in data set [5], the “liver histology (hematoxylin-eosin)” value is “minor changes in cell morphology in the liver”.

As to `CCCC(C(=O)c1ccc2c(c1)OCO2)N1CCCC1` (stereo not shown) [MDPV, methylenedioxypyrovalerone], the “time post injection with significant hypothermia vs baseline” value in data set [1] (females, 80 mg/kg IP) is 20 min; in data set [1] (females, 100 mg/kg IP) it was 20 min; in data set [1] (females, 120 mg/kg IP), 20 min; in data set [1] (males, 80 mg/kg IP), “did not identify any significant differences”; in data set [1] (males, 140 mg/kg IP) it was 20 min. For the same compound, the “maximal decrease in temperature, females” value in data set [1] (females) was “≈ 2 °C”. The “effect on body temperature” value in data set [1] is “significant hypothermic effects in both males and females”. Also, the “maximal decrease in temperature, males” value in data set [1] (males) was “≈ 2 °C”. Further, in data set [6] (1 mg/kg IP), the effects on temperature result is listed as “did not find effects”. Moreover, the lethal effects entry in data set [3] is listed as “no lethal effects at any dose”.

As to `CNC(C)C(=O)c1ccc(C)cc1` (stereo not shown) [MMC, 4-methyl-methcathinone], in data set [1] (females), the “maximal decrease in temperature, females” value is “≈ 6 °C” and the “effect on body temperature, females” value is given as “profound hypothermic effects”. In addition, the “time post injection with significant hypothermia vs baseline” value in data set [1] (males, 20 mg/kg IP) came out at 20 min. Besides, the “time post injection with significant hypothermia vs baseline” value in data set [1] (males, 120 mg/kg IP) came to 20 min. For the same compound, in data set [1] (males), the “maximal decrease in temperature, males” value is “≈ 4 °C” and the “effect on body temperature, males” value was “greatest temperature decreases in males compared to the five other drugs”. Besides, in data set [4], the normalized heart weight result is “increased normalized heart weight in a dose dependent manner” and the normalized liver weight entry was “significantly increased normalized liver weight”. Besides, the “liver histology (hematoxylin-eosin)” value in data set [5] is “minor changes in cell morphology in the liver”.

As to `CNC(C)C(=O)c1ccc2c(c1)OCO2` (stereo not shown) [methylone], in data set [6], the “decrease in temperature after the first injection” value was 4 °C. Moreover, in data set [7], the “LD50 compared with MA or MDMA” value was “slightly lower than that of MA or MDMA”.
